From patent US20230172203A1, “PLANT METABOLISM PROMOTING COMPOSITIONS AND METHODS OF USE” (Panoptic Ag Solutions LLC, priority 2021, published 2023)

Legend:
Assay type in all cases: in vivo
[1] = system: Soybean (Glycine max); assay: 2021 Replicated Nebraska Soybean Field Trial
Text: Soybean seeds (Glycine max) were planted at a rate of 150,000 seeds per acre. The treated plot size was 5 ft×40 ft and this was replicated 4 times. A 20% aqueous L-theanine solution was applied to the foliage at 8 fl. oz./acre at the R2 (full flowering) growth stage. The trial was fertilized and maintained under grower standard practices.

[2] = system: Wheat (Triticum aestivum); assay: 2022 Replicated South Dakota Spring Wheat Field Trial
Text: Wheat seed (Triticum aestivum) was planted at a rate of 90 lbs/acre. The treated plot size was 5 ft×40 ft and this was replicated 4 times. A 20% L-theanine solution was applied at 8 fl. oz./acre to the foliage of the wheat approximately 40 days after emergence. The trial was fertilized and maintained under grower standard practices.

[3] = system: Onions; assay: 2021 Pennsylvania Onion Replicated Field Trial
Description: Onions were maintained under grower standard practices. Four replications were performed per treatment. In this trial, applications of L-theanine were performed every 14 days for a total of 4 applications.

[4] = system: Rutgers variety tomato plant seedlings; assay: 2021 Greenhouse Tomato Trial
Text: The base formulation used in greenhouse trials was an aqueous solution of L-theanine (20% by weight). The base formulation was further diluted with water as detailed for each trial. Rutgers variety tomato plant seedlings (n=6/treatment) were planted in commercial potting soil and then were transplanted to 3 gallon pots. L-theanine treatment was applied at the equivalent of 1 pint in 100 gallons of water (125 ppm) and sprayed till runoff. Two treatment applications were made to the plants approximately 14 days apart.

[5] = system: Mustard plants; assay: 2021 Greenhouse Mustard Trial (soil application)
Description: The base formulation used in greenhouse trials was an aqueous solution of L-theanine (20% by weight). The base formulation was further diluted with water as detailed for each trial. Mustard seeds (n=28/treatment) were planted in commercial potting soil in 1-gallon pots. Approximately 14 days after seedling emergence, an aqueous L-theanine solution was mixed into water at a rate of 0.2 mL per 1000 mL water. The resulting solution was applied to the soil of the pots at a rate of 50 mL per plant. Plants were grown for an additional 14 days then harvested.

[6] = system: corn; assay: 2021 York, NE Corn Replicated Field Trial; conditions: in-furrow application 8 fl. oz. per acre; V5 growth stage; vs untreated plant
Text: FIG. 1 is a photo from a 2021 York, NE Corn Trial. An aqueous solution of L-theanine was applied to the corn as an in-furrow application at a rate of 8 fl. oz. per acre. The pictures from the trial were taken at the V5 (5th Leaf) growth stage.

[7] = system: Mature cherry trees; assay: 2022 Replicated California Cherry Trial
Description: Mature cherry trees (n=6) were treated with a 10% aqueous L-theanine solution at 1 pint per acre with application timings at Early Bloom, Petal Fall, and Early Fruit set. The trial was maintained at grower standard fertilizer and pest management throughout the course of the trial.

[8] = system: Butterbaby variety squash plant seedlings; assay: 2021 Greenhouse Squash Trial
Text: The base formulation used in greenhouse trials was an aqueous solution of L-theanine (20% by weight). The base formulation was further diluted with water as detailed for each trial. Butterbaby variety squash plant seedlings (n=4/treatment) were planted in commercial potting soil and then were transplanted to 3-gallon pots. L-theanine treatment was applied at the equivalent of 1 pint in 100 gallons of water (125 ppm) and sprayed till runoff. Two treatment applications were made to the plants approximately 14 days apart.

[9] = system: Corn seed; assay: 2020 Greenhouse Corn Seed Treatment Trial
Description: The base formulation used in greenhouse trials was an aqueous solution of L-theanine (20% by weight). The base formulation was further diluted with water as detailed for each trial. Corn seed (n=9/treatment) was treated with an aqueous solution of L-theanine at a rate of 1.0 fl. oz. per hundredweight of corn seed. The seeds were planted in commercial potting soil in 1-gallon pots. The plants were grown for 21 days before they were harvested.

[10] = system: CalWonder variety pepper plant seedlings; assay: 2021 Greenhouse Bell Pepper Trial
Text: The base formulation used in greenhouse trials was an aqueous solution of L-theanine (20% by weight). The base formulation was further diluted with water as detailed for each trial. CalWonder variety pepper plant seedlings (n=4/treatment) were planted in commercial potting soil and then were transplanted to 3-gallon pots. L-theanine treatment was applied at the equivalent of 1 pint in 100 gallons of water (125 ppm) and sprayed till runoff. Two treatment applications were made to the plants approximately 14 days apart.

[11] = vs untreated check, 4 applications
[12] = foliar spray 125 ppm till runoff, two applications ~14 days apart
[13] = vs untreated check, 125 ppm foliar, two applications
[14] = 0.2 mL per 1000 mL water, 50 mL per plant, harvested 14 days later
[15] = over the untreated check, seed treatment
[16] = seed treatment 1.0 fl. oz. per hundredweight of seed, harvested after 21 days

SMILES: CCNC(=O)CC[C@H](N)C(=O)O [L-theanine]
- Yield ([1]; 20% aqueous solution, foliar, 8 fl. oz./acre at R2 (full flowering)): 84.6 a Bushels/Acre
- increase in yield ([1]; over the untreated control): 6.0 bushels per acre
- increase in yield, percent ([1]; over the untreated control): 7.6%
- Yield ([2]; 20% solution, foliar, 8 fl. oz./acre ~40 days after emergence): 53.9 a Bushels/Acre
- increase in yield ([2]; over the untreated control): 5.3 bushels/acre
- increase in yield, percent ([2]; over the untreated control): 10.9%
- Fresh Onion Mass ([3]; applications every 14 days, total of 4 applications): 227 a g
- size and uniformity of onions (FIG. 2, in words) ([3]; treated over untreated onions): increase in size and uniformity
- increase in biomass of the onions [3, 11]: 75.0 g
- increase in biomass of the onions, percent [3, 11]: 49.3%
- Basal Diameter [4, 12]: 6.75 a mm
- Fruit (count) [4, 12]: 8.25 a count
- Leaf (count) [4, 12]: 5 a count
- Plant Height [4, 12]: 21.25 a in
- increase in basal diameter [4, 13]: 1.1 mm
- increase in basal diameter, percent [4, 13]: 19.5%
- increase in fruit count [4, 13]: 3.75
- increase in fruit count, percent [4, 13]: 83.3%
- increase in plant height [4, 13]: 2.5 in
- increase in plant height, percent [4, 13]: 13.3%
- Plant Biomass [5, 14]: 22.19 a g
- Root Length [5, 14]: 545.5 a cm
- Root Tips (count) [5, 14]: 3178.7 a count
- increase in plant biomass ([5]; above the untreated check): 2.8 g
- increase in plant biomass, percent ([5]; above the untreated check): 14.5%
- increase in root length ([5]; above the untreated check): 120.9 cm
- increase in root length, percent ([5]; above the untreated check): 28.5%
- increase in root tips ([5]; above the untreated check): 887
- increase in root tips, percent ([5]; above the untreated check): 38.7%
- root biomass development and stalk girth (FIG. 1, in words) [6]: increases in root biomass development and stalk girth
- Yield ([7]; 10% aqueous solution at 1 pint per acre, Early Bloom, Petal Fall, Early Fruit set): 70.3 a Boxes/Acre
- increase in yield ([7]; over the untreated check): 12.8 boxes/acre
- increase in yield, percent ([7]; over the untreated check): 22.3%
- plant productivity, flowering and fruit set (in words) ([8]; 125 ppm foliar, two applications): improved plant productivity, early flowering, and early fruit set
- Fruit/Vine (count) [8, 12]: 4.25 a count
- Vine Length [8, 12]: 55.00 a in
- increase in fruit per vine [8, 13]: 2.75 fruit
- increase in fruit per vine, percent [8, 13]: 183.3%
- increase in vine length [8, 13]: 11.25 in
- increase in vine length, percent [8, 13]: 25.7%
- increase in biomass [9, 15]: 1.3 g
- increase in biomass, percent [9, 15]: 4.4%
- increase in root length [9, 15]: 69.1 cm
- increase in root length, percent [9, 15]: 7.0%
- increase in root tips [9, 15]: 883.8
- increase in root tips, percent [9, 15]: 18.5%
- Plant Biomass [9, 16]: 29.88 a g
- Root Length [9, 16]: 1049.08 a cm
- Root Tips (#) [9, 16]: 5656.2 a #
- Basal Diameter [10, 12]: 5.55 a mm
- Fruit (count) [10, 12]: 5.5 a count
- Plant Height [10, 12]: 26 a in
- improvement in basal diameter [10, 13]: 1.82 mm
- improvement in basal diameter, percent [10, 13]: 48.8%
- improvement in fruit count [10, 13]: 3.0
- improvement in fruit count, percent [10, 13]: 120%
